In test [1] the test system is human bronchial epithelial cells. Kind of test: Effect of culture media calcium content on cell behavior. In kind it is cell-based. Conditions: 1 mM CaCl2 in KSFM plus A83-01 and Y-27632. On the procedure: Effects of culture media calcium content on cell behavior were assessed for epithelial cells cultured in KSFM plus A83-01 and Y-27632. Human bronchial epithelial cells were grown KSFM (with 90 μM CaCl2) plus A83-01 and Y-27632. These cells dispersed throughout the culture vessel (FIG. 28, left panel), and few cells formed intercellular connections, even when they were in close proximity to each other. […] Cells in the center of the patches tended to pile up, and boundaries between individual cells generally were not discernable. In certain instances, abnormal elongations formed between clusters.

Test [2] relates to bronchial epithelial cells. Kind of test: Trans-epithelium electric resistance (TEER) of bronchial epithelial cells on […]. The class given is cell-based, human. On the procedure:
In a further investigation, effects of culture media calcium content on intercellular junctions was assessed for bronchial epithelial cells cultured in KSFM plus A83-01 and Y-27632. Intercellular junctions were assessed according to paracellular flow of ions as measured by trans-epithelium electric resistance (TEER). […] Bronchial epithelial cells were plated on porous membrane support ([…], Corning, 354474) and maintained for 7 days when the membrane was covered with culture medium (submerged phase, grayed box in FIG. 29, top panel). On day 8, the medium was removed from the apical side of the membrane, and the cells were exposed to air to induce further differentiation. Further, as shown in FIG. 29 (bottom panel), bronchial epithelial cells established increasing transmembrane electric resistance (TEER) over time in the presence of high concentration (1 mM) of CaCl2 in KSFM plus A 83-01 and Y-27632. Bronchial epithelial cells were plated on a porous membrane support ([…], Corning, 354474) and maintained for 24 days, with the membrane covered by culture medium for the duration of the culture. Trans-epithelium electric resistance (TEER) remained at a high level throughout the culture period.

The subject of test [3] is human bronchial epithelial cells (HBEC) and human foreskin keratinocytes (HFK). Kind of test: Dome-like structure formation at high CaCl2. Conditions: CaCl2 raised to 1.5 mM in KSFM+A+Y, 7 to 10 days. In kind it is cell-based. Here is the method: Dome-like structures formed in keratinocyte and bronchial epithelial cell cultures in the presence of high concentration of CaCl2. Specifically, late passage human bronchial epithelial cells (HBEC) and late passage human foreskin keratinocytes (HFK) cultured in KSFM supplemented with 1 μM A 83-01 and 5 μM Y-27632 (KSFM+A+Y) at low CaCl2 (90 μM) were allowed to reach confluence in 6-well plates. The cells remained in the KSFM+A+Y conditions and the CaCl2 concentration was raised to 1.5 mM to induce differentiation of the epithelial cells.

For test [4], the system named is human foreskin keratinocytes (HFK). Kind of test: Tight junction formation, ZO-1 immunofluorescence. In kind it is cell-based. Conditions: CaCl2 raised to 1.5 mM in KSFM+A+Y. Here is the method:
Specifically, late passage human foreskin keratinocytes (HFK) cultured in KSFM supplemented with 1 μM A83-01 and 5 μM Y-27632 (KSFM+A+Y) at low CaCl2 (90 μM) were allowed to reach confluence. The cells remained in the KSFM+A+Y conditions and the CaCl2 concentration was raised to 1.5 mM to induce differentiation.

Test [5] shares this test system. Kind of test: TEER in air-liquid-interface differentiation of keratinocytes. The class given is cell-based. Conditions: 1.5 mM CaCl2 in KSFM+A+Y, 14 days. On the procedure: Keratinocytes established increasing transmembrane electric resistance (TEER) over time in air-liquid-interface differentiation, in the presence of high concentration (1.5 mM) of CaCl2 in KSFM plus A 83-01 and Y-27632. Specifically, human foreskin keratinocytes (HFK) previously cultured in KSFM supplemented with 1 μM A83-01 and 5 μM Y-27632 (KSFM+A+Y) at low CaCl2 (90 μM) were plated on a porous membrane support ([…], Corning, 354474) and maintained for 14 days. The cells were covered by culture medium (KSFM+A+Y and 1.5 mM of CaCl2) for the first day (submerged phase, grayed box in FIG. 34) and exposed to air for the remaining days.

The test system is the same in test [6]. Kind of test: Epidermal-like structure in air-liquid-interface differentiation (H&E). The class given is cell-based. As to conditions: 1.5 mM CaCl2 in KSFM+A+Y, day 14. Here is the method:
Keratinocytes formed an epidermal-like structure over time in air-liquid-interface differentiation, in the presence of high concentration (1.5 mM) of CaCl2 in KSFM plus A 83-01 and Y-27632. Specifically, human foreskin keratinocytes (HFK) previously cultured in KSFM supplemented with 1 μM A83-01 and 5 μM Y-27632 (KSFM+A+Y) at low CaCl2 (90 μM) were plated on a porous membrane support ([…], Corning, 354474) and maintained for 14 days. The cells were covered by culture medium (KSFM+A+Y and 1.5 mM of CaCl2) for the first day and exposed to air for the remaining days. At the end of experiment (i.e., on day 14), the culture was fixed in 4% paraformaldehyde, embedded in paraffin and sectioned for haematoxylin and eosin staining (H&E) to reveal its structure.

Test [7] deals with CD4+ and CD8+ T cells (human PBMCs). Kind of test: T cell proliferation, Cell Trace CFSE stained PBMCs with PHA co-incubated with hAECs. In kind it is cell-based. Conditions: 48 hour preincubation of hAECs with interferon γ 100 ng/ml. An excerpt:
Human Peripheral Blood Mononuclear Cells (PBMCs) were isolated and stained with Cell Trace CFSE (Thermo Fisher Scientific). Cell Trace CFSE is a cell permeable amine reactive fluorescent dye that non-specifically labels intracellular proteins. Through subsequent cell divisions each daughter cell receives approximately half of the label allowing for determination of the intensity of fluorescence by flow cytometry and correlation to the number of cell divisions. Cell Trace CFSE stained PBMCs were added to ˜80% confluent monolayers of hAECs from Donor 1 (P4) and Donor 2 (P4) expanded in KSFM A+Y. Upon addition of the stained PMBCs the media was changed to RPMI media with 10% FBS and 5 μg/ml phytohaemagglutinin (PHA). PHA is a potent mitotic agent used to activate and stimulate proliferation of lymphocytes. The expanded hAECs were used directly from growth conditions or after a 48 hour preincubation with Interferon γ (100 ng/ml; Thermo Fisher Scientific). This treatment can increase the immunosuppressive effect of hAECs. […] The degree of inhibition of proliferation was calculated by determining the number of cells that proliferated in the presence of hAECs relative to the number of cells that proliferated when exposed to PHA treatment alone (FIG. 45D). […]

For another test, the system named is hAECs. Kind of test: Effect of interferon γ on immunomodulatory gene expression in hAECs (qRT-PCR). Conditions: 100 ng/mL, 48 hours. The class given is cell-based, human. On the procedure:
In certain instances, treatment of hAECs with interferon γ (INFγ) leads to an upregulation of genes involved in immune suppression. However, cultured hAECs typically lose their functional phenotype (see e.g., cells tested at passage 5 in Pratama et al. 2011 PLoS ONE 6(11): e26136). In this example, hAECs isolated from two different donors (Donor 1 and Donor 2), were tested for their response to INFγ both in KSFM A+Y and after removal from growth conditions and placement into standard hAEC media (DMEM:F12 10% FBS). Cells from both donors grown in KSFM A+Y at passage 4 at ˜80% confluence were either kept in KSFM A+Y, changed to KSFM A+Y+100 ng/mL INFγ, or changed to DMEM:F12+/−100 ng/mL INFγ. The cells were left for an additional 48 hours in each condition. qRT-PCR was used to examine expression levels of HLA-G, Indoleamine 2,3-dioxygenase (IDO), and Programmed Death Ligand 1 (PD-L1) (see FIGS. 46A-46D).
HLA-G can have a wide variety of immunomodulatory effects on numerous immune cells. Expression of HLA-G is generally considered a prominent feature of hAECs, and often is lost during expansion in culture. […] IDO is the first and rate-limiting enzyme of tryptophan catabolism through the kynurenine pathway, thus causing depletion of tryptophan which can inhibit T cell proliferation. […] PD-L1 may play a major role in immune suppression, inhibiting the proliferation and inducing apoptosis of T cells.
Background: Real-time PCR tracks product formation cycle by cycle.

As to `[Ca+2].[Cl-].[Cl-]` [CaCl2], the cell behavior result in test [1] was “aggregate into tight clusters”. Also, the “intercellular junctions (TEER)” value was “established tight intercellular junctions” in test [2] (high concentration (1 mM) in KSFM plus A 83-01 and Y-27632); “failed to establish tight intercellular junctions” in test [2] (low concentration (90 μM) in KSFM plus A 83-01 and Y-27632). For the same molecule, in test [3], the dome-like structure formation entry is given as “Many dome-like structures were formed”. In addition, the “tight junction formation (ZO-1)” value in test [4] was “Tight junction formation was observed”. Moreover, the “trans-epithelium electric resistance (TEER)” value in test [5] was “reached very high levels”. For the same molecule, the epidermal-like structure formation entry in test [6] was “differentiated into multi-layer structures”.

B1: interferon γ: Interferon γ (100 ng/ml; Thermo Fisher Scientific) (protein, UniProt P01579 24-161, looked up)
Interferon gamma: QDPYVKEAENLKKYFNAGHSDVADNGTLFLGILKNWKEESDRKIMQSQIVSFYFKLFKNFKDDQSIQKSVETIKEDMNVKFFNSNKKKRDDFEKLTNYSVTDLNVQRKAIHELIQVMAELSPAAKTGKRKRSQMLFRG
B1: the “inhibition of T cell proliferation by hAECs” value in test [7] was “increased”. Moreover, in the test with hAECs, the IDO expression result is recorded as “increases dramatically” and the PD-L1 expression entry is given as “dramatic increase in expression”. Besides, the HLA-G expression result in the test with hAECs (after moving cells to standard media (DMEM:F12)) was “greatly increased”.

(Values after patent US10100285B2, “Ex vivo proliferation of epithelial cells” (PROPAGENIX INC., priority 2015, dated 2018).)
